For one assay, the target named is His-BIR3 (241-356, XIAP) (Homo sapiens (Human), UniProt P98170). Briefly: XIAP-BIR3/SMAC Homogeneous Time Resolved Fluorescence (HTRF) Assay. The conditions noted are these: fluorescein labeled SMAC peptide. The format is binding. Here is the method:
B. XIAP-BIR3/SMAC Homogeneous Time Resolved Fluorescence (HTRF) Assay
(§1) Assays were performed in black, flat-bottom, 384-well plates.
Background: TR-FRET usually uses a lanthanide donor and a delayed reading to cut background.

The target in assay [1] is His-BIR2-3 (125-356, C202A/C213G, XIAP) (Homo sapiens (Human), UniProt P98170, C202A/C213G). Briefly: XIAP-BIR2-3 Dimeric SMAC Peptide Homogeneous Time Resolved Fluorescence (HTRF) Assay. The format is binding. The note with it: fluorescein labeled dimeric SMAC peptide. Here is the method: D. XIAP-BIR2-3 Dimeric SMAC Peptide Homogeneous Time Resolved Fluorescence (HTRF) Assay
as §1

Molecules are shown by their SMILES. pIC50: −log10 of the molar value.

A word on the pIC50: it is the negative decadic logarithm of the IC50, by convention in mol/L. In the case of `CN[C@@H](C)C(=O)N[C@H](C(=O)N1Cc2cc(C(=O)Nc3nc(C(=O)N[C@H]4C[C@@H](C(=O)N[C@@H]5CCCc6ccccc65)N(C(=O)[C@@H](NC(=O)[C@H](C)NC)C(C)(C)C)C4)co3)ccc2C[C@H]1C(=O)N[C@@H]1CCCc2ccccc21)C(C)(C)C` [Example 22, (S)-2-((S)-3,3-Dimethyl-2-((S)-2-(methylamino)propanamido)butanoyl)-N^7-(4-(((3S,5S)-1-((S)-3,3-dimethyl-2-((S)-2-(methylamino)propanamido)butanoyl)-5-(((R)-1,2,3,4-tetrahydronaphthalen-1-yl)carbamoyl)pyrrolidin-3-yl)carbamoyl)oxazol-2-yl)-N^3-((R)-1,2,3,4-tetrahydronaphthalen-1-yl)-1,2,3,4-tetrahydroisoquinoline-3,7-dicarboxamide], the pIC50 against His-BIR3 (241-356, XIAP) is 7.85; in assay [1] it was 8.40.

Take `CN[C@@H](C)C(=O)N[C@H](C(=O)N1Cc2cc(C(=O)Nc3ccc4cc(C(=O)N[C@H]5C[C@@H](C(=O)N[C@@H]6CCCc7ccccc76)N(C(=O)[C@@H](NC(=O)[C@H](C)NC)C(C)(C)C)C5)[nH]c4c3)ccc2C[C@H]1C(=O)N[C@@H]1CCCc2ccccc21)C(C)(C)C` [Example 24, (S)-2-((S)-3,3-Dimethyl-2-((S)-2-(methylamino)propanamido)butanoyl)-N^7-(2-(((3S,5S)-1-((S)-3,3-dimethyl-2-((S)-2-(methylamino)propanamido)butanoyl)-5-(((R)-1,2,3,4-tetrahydronaphthalen-1-yl)carbamoyl)pyrrolidin-3-yl)carbamoyl)-1H-indol-6-yl)-N^3-((R)-1,2,3,4-tetrahydronaphthalen-1-yl)-1,2,3,4-tetrahydroisoquinoline-3,7-dicarboxamide]: the pIC50 against His-BIR3 (241-356, XIAP) was 7.03; in assay [1] it was 7.48.

For `CN[C@@H](C)C(=O)N[C@H](C(=O)N1C[C@@H](NC(=O)c2ccc(C(=O)Nc3ccc4c(c3)CN(C(=O)[C@@H](NC(=O)[C@H](C)NC)C(C)(C)SCc3ncc(C(C)(C)C)o3)[C@H](C(=O)N[C@@H]3CCCc5ccccc53)C4)cc2)C[C@H]1C(=O)N[C@@H]1CCCc2ccccc21)C(C)(C)C` [Example 68, N^1-((S)-2-((R)-3-(((5-(tert-Butyl)oxazol-2-yl)methyl)thio)-3-methyl-2-((S)-2-(methylamino)propanamido)butanoyl)-3-(((R)-1,2,3,4-tetrahydronaphthalen-1-yl)carbamoyl)-1,2,3,4-tetrahydroisoquinolin-7-yl)-N^4-((3S,5S)-1-((S)-3,3-dimethyl-2-((S)-2-(methylamino)propanamido)butanoyl)-5-(((R)-1,2,3,4-tetrahydronaphthalen-1-yl)carbamoyl)pyrrolidin-3-yl)terephthalamide], the pIC50 at His-BIR3 (241-356, XIAP) was 6.59; in assay [1], 6.80.

For the compound `CN[C@@H](C)C(=O)N[C@H](C(=O)N1C[C@@H](NC(=O)c2ccc(C(=O)Nc3ccc4c(c3)CN(C(=O)[C@@H](NC(=O)[C@H](C)NC)C(C)(C)SCC(=O)Nc3nccs3)[C@H](C(=O)N[C@@H]3CCCc5ccccc53)C4)cc2)C[C@H]1C(=O)N[C@@H]1CCCc2ccccc21)C(C)(C)C` [Example 60, N^1-((3S,5S)-1-((S)-3,3-Dimethyl-2-((S)-2-(methylamino)propanamido)butanoyl)-5-(((R)-1,2,3,4-tetrahydronaphthalen-1-yl)carbamoyl)pyrrolidin-3-yl)-N^4-((S)-2-((R)-3-methyl-2-((S)-2-(methylamino)propanamido)-3-((2-oxo-2-(thiazol-2-ylamino)ethyl)thio)butanoyl)-3-(((R)-1,2,3,4-tetrahydronaphthalen-1-yl)carbamoyl)-1,2,3,4-tetrahydroisoquinolin-7-yl)terephthalamide], the pIC50 at His-BIR3 (241-356, XIAP) is 7.38; in assay [1], 7.66.

Source of the values: US9783573B2, “IAP antagonists” (BRISTOL-MYERS SQUIBB COMPANY, priority 2012, dated 2017).
